“And” between values parts separate entries of the source, which are not always exact repeats. Identical values can stand only once. Like-named read-outs stand apart in the source and are kept apart here.
Target: T1, SBC2 (Homo sapiens, UniProt O14508)
T1 construct: SOCS2 (amino acids 32–198); His6 (N, cleaved yes); made in house; host or cells: E. coli BL21(DE3)
Assay: Covalent fluorescence polarization (FP) probe displacement assay
Assay type: binding
Design: Michaelis-Menten best-fit value Vmax / Michaelis-Menten best-fit Vmax: unit not given here
Conditions: for Anisotropy: Cycle 12 (55 min)
Source text: With the specific covalent modification of Cys111 established, we decided to fully characterize MN551 as a covalent SOCS2 inhibitor. […] (Fig. 2g, h, Supplementary Fig. 9). Due to the covalent nature of the competing inhibitor, a time-dependent reduction in the fraction of protein-bound probe is observed. […] This value illustrates reasonable specificity for a covalent inhibitor, with nonetheless scope for future optimization. In addition to characterizing the kinetic covalency parameters, we have also assessed the stability of the MN551 by monitoring its reactivity (half-life >70 min) with reduced glutathione (GSH) (Supplementary Fig. 10)[35].
To monitor the SBC2-ligand binding kinetics we designed a fluorescein-labeled small-molecule probe - compound 26. The fluorescence polarization (anisotropy) of a threefold serial dilution of 50 µM SBC2 in 10 nM of the probe in 100 mM HEPES pH 7.5, 50 mM NaCl, 0.5 mM TCEP, 2% DMSO was measured to determine the KL (Supplementary Fig. 9A) (BMG Labtech PHERAstar – firmware v1.33). Protein titration and the curves were fitted using GraphPad Prism 9, using one-site fitting models to determine the probe binding constant, KL. Samples were run in triplicate in 384 well plates, using a total volume per well of 16 μL. The bound fraction of the probe is measure using the equation:1 Fb=Af−A/Af−Ab Where,
A time-dependent reduction in probe anisotropy were measured for a 2-fold serial dilution of […] compound MN551 in 10 nM probe +300 μM SBC2. To determine the initial reversible binding affinity, the initial bound fraction of the probe at time = 0, Fbo (the y-intercept in Fb v/s Time plot, Supplementary Fig. 9B) was plotted against MN551 concentration, and the obtained IC50 is then converted to Ki (Supplementary Fig. 9C)[17]. The slope from Fb versus time graph when divided by Fbo gives rate of covalency, kobs. A plot of kobs v/s MN551 concentration using Michaelis–Menten model of GraphPad Prism 9, provides the parameters kinact (maximum potential rate of inactivation) and KI (concentration of MN551 at which kobs = kinact/2) (Supplementary Fig. 9D, E).
The observed first-order rate constant, kobs is related to KI and kinact by the equation:2 kobs=kinactI/KI+I
At [I]«[KI] the above equation is converted to3 […]
The slope from the plot of kobs against concentration of MN551 gives us the covalent efficiency parameter kinact/KI (Supp Fig. 9F)[30],[33].

[1] = MN551 1562.5 nM, Cycle 6 (25 min)
[2] = MN551 3125 nM, Cycle 6 (25 min)
[3] = MN551 6250 nM, Cycle 6 (25 min)
[4] = MN551 12500 nM, Cycle 6 (25 min)
[5] = MN551 25000 nM, Cycle 6 (25 min)
[6] = MN551 50000 nM, Cycle 6 (25 min)
[7] = linear fit through origin, 14 X values

T1 sequence (O14508 32-198): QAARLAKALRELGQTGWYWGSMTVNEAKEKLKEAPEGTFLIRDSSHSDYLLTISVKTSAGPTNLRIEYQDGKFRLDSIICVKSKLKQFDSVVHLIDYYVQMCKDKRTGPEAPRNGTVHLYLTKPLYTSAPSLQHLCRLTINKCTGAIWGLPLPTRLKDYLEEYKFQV
T1 sequence (Q15370 1-104 partner limits assumed): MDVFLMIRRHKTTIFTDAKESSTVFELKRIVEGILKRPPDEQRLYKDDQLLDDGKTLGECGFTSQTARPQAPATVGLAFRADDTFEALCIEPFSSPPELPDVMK
T1 sequence (Q15369 17-112 partner limits assumed): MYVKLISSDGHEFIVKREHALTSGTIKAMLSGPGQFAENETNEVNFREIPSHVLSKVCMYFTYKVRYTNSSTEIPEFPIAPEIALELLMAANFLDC

O=C(CCl)Nc1cccc(CNC(=O)[C@H](Cc2ccc(OP(=O)(O)O)cc2)NC(=O)Cc2ccc(F)cc2)c1 [MN551]
Anisotropy based on Raw Data (485) (MN551 1562.5 nM, Cycle 7 (30 min)): 249.9 and 251.8 and 246.3 | Fb, fraction bound (MN551 1562.5 nM, Cycle 2 (5 min)): 0.7824 and 0.8178 and 0.7856 | Fb, fraction bound (MN551 1562.5 nM, Cycle 3 (10 min)): 0.7647 and 0.786 and 0.7702 | Anisotropy data 485,520,520 [1]: 247 and 253 and 251 | Fb [1]: 0.6849 and 0.7296 and 0.7125 | Anisotropy (MN551 1562.5 nM): 232.7 and 235.9 and 233.9 | Anisotropy based on Raw Data (485) (MN551 3125 nM, Cycle 7 (30 min)): 236.7 and 234.8 and 231.2 | Fb, fraction bound (MN551 3125 nM, Cycle 3 (10 min)): 0.6544 and 0.6694 and 0.6412 | Anisotropy data 485,520,520 [2]: 232.2 and 235.2 and 237.3 | Fb [2]: 0.5431 and 0.5648 and 0.5878 | Anisotropy (MN551 3125 nM): 219.6 and 215.4 and 213.4 | Anisotropy based on Raw Data (485) (MN551 6250 nM, Cycle 7 (30 min)): 210.9 and 211.2 and 208.6 | Fb, fraction bound (MN551 6250 nM, Cycle 3 (10 min)): 0.4366 and 0.4454 and 0.4414 | Anisotropy data 485,520,520 [3]: 214.2 and 214.4 and 216.1 | Fb [3]: 0.3707 and 0.3722 and 0.3949 | Anisotropy (MN551 6250 nM): 197.5 and 192.2 and 194.7 | Anisotropy data 485,520,520 (MN551 6250 nM, Cycle 19 (90 min), n=1): 182.4 and 180.6 and 182.5 | Anisotropy based on Raw Data (485) (MN551 12500 nM, Cycle 7 (30 min)): 198.9 and 196.3 and 194.4 | Fb, fraction bound (MN551 12500 nM, Cycle 3 (10 min)): 0.2711 and 0.337 and 0.3633 | Anisotropy data 485,520,520 [4]: 197.3 and 198 and 197.2 | Fb [4]: 0.2088 and 0.2204 and 0.2229 | Anisotropy (MN551 12500 nM): 181.6 and 186.4 and 190.6 | Anisotropy data 485,520,520 (MN551 12500 nM, Cycle 19 (90 min), n=1): 175.8 and 177.4 and 179.3 | Anisotropy based on Raw Data (485) (MN551 25000 nM, Cycle 7 (30 min)): 184.9 and 182.9 and 181.5 | Anisotropy based on Raw Data (485) (MN551 25000 nM, Cycle 8 (35 min)): 180.7 and 181.6 | Fb, fraction bound (MN551 25000 nM, Cycle 3 (10 min)): 0.1627 and 0.184 and 0.1553 | Anisotropy data 485,520,520 [5]: 189.8 and 187 and 188.6 | Fb [5]: 0.137 and 0.1185 and 0.1447 | Anisotropy (MN551 25000 nM): 177.2 and 177.1 and 175 | Anisotropy data 485,520,520 (MN551 25000 nM, Cycle 19 (90 min), n=1): 168.3 and 171.4 and 169.1 | Anisotropy based on Raw Data (485) (MN551 50000 nM, Cycle 7 (30 min)): 181.6 and 178.4 and 180.2 | Anisotropy based on Raw Data (485) (MN551 50000 nM, Cycle 8 (35 min)): 179.2 and 176.8 and 178.5 | Fb, fraction bound (MN551 50000 nM, Cycle 3 (10 min)): 0.08456 and 0.09836 and 0.08356 | Anisotropy data 485,520,520 [6]: 185.8 and 181.1 and 183.7 | Fb [6]: 0.09866 and 0.06389 and 0.1001 | Anisotropy (MN551 50000 nM): 173.6 and 173.5 and 174.7 | Anisotropy data 485,520,520 (MN551 50000 nM, Cycle 19 (90 min), n=1): 167.6 and 168.6 and 168.7 | Anisotropy based on Raw Data (485) (MN551 100000 nM, Cycle 7 (30 min)): 179.4 and 180.3 and 179.5 | Anisotropy based on Raw Data (485) (MN551 100000 nM, Cycle 8 (35 min)): 176.4 and 175.9 | Fb, fraction bound (MN551 100000 nM, Cycle 3 (10 min)): 0.06066 and 0.07013 and 0.06449 | Anisotropy data 485,520,520 (MN551 100000 nM, Cycle 6 (25 min)): 179.9 and 183.4 | Anisotropy (MN551 100000 nM): 176.4 and 173.8 and 174.3 | Anisotropy data 485,520,520 (MN551 100000 nM, Cycle 19 (90 min), n=1): 171.6 and 169.1 | Ki (Mean, n = 3, time = 0, read-out: Ki): 1110 nM | Ki (calculated from IC50 at time = 0, read-out: Ki at time = 0 (initial reversible binding affinity)): 1100 nM | Michaelis-Menten best-fit value Vmax (experiment n=1, 95% CI 0.01343 to 0.01564): 0.0145 | Linear fit best-fit value Slope (experiment n=1, Y = 3.349e-006*X + 0.000, 95% CI 3.026e-006 to 3.671e-006): 3.349e-6 | Slope of linear regression (Equation Y = slope*X + 0.000), covalent efficiency [7]: Y = 3.866e-006*X + 0.000 | Slope, 95% Confidence Intervals [7]: 3.764e-006 to 3.969e-006 | kinact (maximum potential rate of inactivation) (mean ± SEM, n = 3): 2.1 × 10^–4 s^-1 | kinact (mean ± SEM, n = 3, read-out: kinact (maximum potential rate of inactivation)): 0.0125 min⁻¹ | kinact/KI (covalent efficiency) (mean, n = 3): 57.53 M⁻¹ s⁻¹ | Ki (mean, n = 3, read-out: Ki): 3560.67 nM | kinact (mean, n = 3, read-out: Kinact (converted)): 0.0153 min⁻¹ | kinact/KI (mean, n = 3, read-out: kinact/KI (covalent efficiency)): 3480 M⁻¹ min⁻¹ | Michaelis-Menten Vmax, 95% CI (profile likelihood) (n=2 experiment): 0.01305 to 0.01515 | Michaelis-Menten best-fit value Vmax (n=2 experiment, R squared 0.9902): 0.01406 | kinact (n=2 experiment, from Michaelis-Menten fit (Vmax), read-out: Kinact (min-1) (converted)): 0.0141 min⁻¹ | kinact (n=2 experiment, from Michaelis-Menten fit (Vmax), read-out: Kinact (s-1)): 0.014 min⁻¹ | kinact/KI (read-out: Slope: Kinact/Ki (M-1min-1), FP competition assay to evaluate MN551 covalent efficiency, replicate n=3, Michaelis-Menten fit): 3690 M⁻¹ min⁻¹ | Michaelis-Menten best-fit Vmax (replicate n=3, 95% CI 0.01570 to 0.01942): 0.01742 | Linear fit 1/slope (replicate n=3, Y-intercept 0): 258642 | Linear fit best-fit Slope (replicate n=3, Y-intercept 0, MN551 below Ki titration): 3.866e-6 | Kinact, individual replicates n1-n3 (single replicates): 0.014 min⁻¹ | Kinact/KI, individual replicates n1-n3 (single replicates): 52.40 M⁻¹ s⁻¹ | kinact (single replicates, read-out: Kinact, individual replicates n1-n3 (converted)): 0.0174 min⁻¹ | kinact/KI (single replicates, read-out: Kinact/KI, individual replicates n1-n3): 3860 M⁻¹ min⁻¹

Reference: publication PMC10564737, “Structure-based design of a phosphotyrosine-masked covalent ligand targeting the E3 ligase SOCS2” (Nature Communications, 2023)
